From patent US20250304811A1, “Ink Jet Ink Composition And Recording Method” (SEIKO EPSON CORPORATION, priority 2024, published 2025)

Test: Solubility in water
Details: 20° C., 100 g of water

COCCOC [ethylene glycol dimethyl ether]
miscibility with water: completely miscible with water
